Here are results for four compounds from patent US20190054038A1, “NITRIC OXIDE GENERATING FORMULATIONS AND KITS” (THE REGENTS OF THE UNIVERSITY OF MICHIGAN, priority 2016, published 2019).

The nature of series [1]: NO release kinetics of solutions by chemiluminescence (nitric oxide analyzer). Format: physicochemical. The protocol: The NO release profile of the two solutions was measured via chemiluminescence detection at 37° C., and the results are shown in FIG. 3. As depicted, both solutions continuously generated NO for more than 7 hours, and the solution containing the higher concentration of GSNO generated higher levels of NO.
As depicted, the inclusion of ascorbate provided an enhanced NO release profile, with all of the NO release within a 2-3 hour window.
The NO release rate of some of the solution formulations was measured by chemiluminescent nitric oxide analyzer (NOA) at room temperature and at 37° C. in an amber NOA cell, while purging with 50 mL/min nitrogen through a glass pipette. The solution formulations were freshly prepared (initial data) (i.e., the dry powder nasal formulation was dissolved in 10 mL of saline solution (NaCl and NaHCO3 in water) immediately before measurements), or were prepared from stored dry power aliquots that were freshly dissolved in 10 mL of saline solution (NaCl and NaHCO3 in water) immediately before measurements. The NO release rate was tested for one or more of the following time periods: 0 (freshly prepared), 1 month, 2 months, 4 months, and 6 months.
The NOA was a Sievers NOA. Studying the release kinetics included analyzing the overall shape of the transient curve, half-life, and total NO released compared to theoretical GSNO content (%). Primarily, the shape of the graph was considered most qualitative, as different machines yield different PPB/mL values due to differing constants. If necessary, the GSNO quantification in each formulation was tested by a copper/cysteine method to release all of the NO from the GSNO very rapidly.

A short description of series [2]: Stability of dry powder formulations by UV/Vis (GSNO absorbance at 334 nm). Type of series: physicochemical. The protocol: Some of the formulations also included ethylenediamintetraacetic acid (EDTA) and/or saline salts (NaCl and NaHCO3). The constituents were mixed as dry powders and were stored in 4 mL amber vials either in the freezer (−18° C.), at 4° C., at room temperature (RT, from about 20° C. to about 25° C.), or at 37° C. The stability of some of the dry powder formulations was tested via UV/Vis analysis and/or via the Sievers nitric oxide (NO) analyzer (as previously described). For the UV/Vis analysis, at each time interval (0 (freshly prepared), 1 month, 2 months, 4 months, and 6 months), three samples (3-5 mg each) from the dry powder formulations (at each temperature, resulting in 12 vials per formulation) were put into 4 mL amber vials. The respective formulations were then diluted in 4 mL PBS+0.1 mM EDTA (PB SE) solution and mixed for 30 seconds, and 1 mL of the diluted formulation was injected into 3 mL PBSE in a disposable UV/VIS cuvette. The absorbance spectrum was measured typically between 300-600 nm after measuring the PBSE spectrum as blank. GSNO was quantified by absorbance measured at 334 nm. These values were then compared to a calculated value of the percentage of initial or theoretical GSNO content of each formulation.

For series [3], the system named is S. aureus biofilm on CF airway epithelial cells. As to the kind of experiment: Killing of S. aureus biofilm on CF airway epithelial cell cultures (bacterial density by plating lysates). Type of series: cell-based. The conditions noted are these: 1.25 mM, 4 hours.
Method: Progenitor (basal) airway epithelial cells isolated from cystic fibrosis patients were cultured at air/liquid interface to promote mucociliary differentiation resembling airway epithelium in vivo. These cultures will be referred to herein as CF airway epithleial cells.
Apical surface of the CF airway epithelial cells was washed with PBS, infected apically with 10 μl of S. aureus (1×10^5 CFU/well or at 0.01 multiplication of infection), and incubated for 24 hours. […] The basolateral medium was changed, the apical surface was washed with saline once, and then 30 μl of PBS containing various concentrations of GSNO/Asc (i.e., 0 mM, 0.3 mM, 0.625 mM, 1.25 mM, 2.5 mM, and 5 mM) was added to the apical surface and incubated for 4 hours. The apical surface was washed once with 0.2 ml of 0.15% bicarbonate in PBS. […] Cells were lysed in 1% Triton X-100 and serial dilutions of cell lysates were plated to determine the bacterial density (FIG. 17A).
Apical surface of CF airway epithelial cells was washed with PBS, infected apically with 10 μl of S. aureus (2×10^6 CFU/well), and incubated for 24 hours. The basolateral medium was changed, the apical surface was washed with saline once and treated apically with 30 μl of PBS, or saline containing 1.25 mM GSNO/Asc, or saline containing 50 μg of gentamicin, or saline containing a mixture of 1.25 mM GSNO/Asc and 50 μg of gentamicin. […]

`N[C@@H](CCC(=O)N[C@@H](CSN=O)C(=O)NCC(=O)O)C(=O)O` [GSNO, S-nitrosoglutathione]: the “time of continuous NO generation” value in series [1] (10 μM and 25 μM GSNO in phosphate buffered saline pH 7.4, 37° C., no additive) is reported as “more than 7 hours”. Also, the “amount of NO release versus GSNO concentration” value in series [1] (GSNO 1-100 μM in saline) is recorded as “directly related to the GSNO concentration”. Also, the “time of peak NO release” value in series [1] (GSNO 1-100 μM in saline, without any additive) was in the range of 5 to 6 h. Moreover, the “% of initial GSNO remaining” value in series [2] (dry powder stored at 37° C., after 6 months) is listed as 67%. Besides, the “stability of dry powder over six months (UV/VIS)” value in series [2] (stored at −18° C., 4° C., room temperature, 37° C.) was “no significant decrease in the stability”.
For the compound `O=C(O)CN(CCN(CC(=O)O)CC(=O)O)CC(=O)O` [EDTA, ethylenediaminetetraacetic acid], the “EDTA stability in stored dry powder formulation” value in series [1] (NO release patterns, fresh vs stored several months) was “stable”.
In the case of `N[C@@H](CCC(=O)N[C@@H](CS)C(=O)NCC(=O)O)C(=O)O` [GSH, reduced L-glutathione], the “change in bacterial density” value in series [3] was “no significant changes in bacterial density”.
For the compound `O=C1O[C@H]([C@@H](O)CO)C(O)=C1O` [ascorbic acid, L-ascorbic acid, reference compound], the “change in bacterial density” value in series [3] is given as “no significant changes in bacterial density”. Besides, in series [2] (UV/Vis of GSNO mixed with ascorbic acid, fresh vs stored several months), the “ascorbic acid stability in stored dry powder formulation” value is “relatively stable”.
